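Method: 48-hour compound exposure of cells in 96-well plates, five concentrations, linear interpolation of endpoints. Definition used: TGI = concentration required for complete inhibition of growth.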
Legend:
Test in all cases: growth of human tumour cells (NCI), 48 h
786-0 renal = tested on: 786-0 renal
A498 renal = tested on: A498 renal
A549 NSCLC = tested on: A549 NSCLC
ACHN renal = tested on: ACHN renal
CAKI-1 renal = tested on: CAKI-1 renal
CCRF-CEM leukemia = tested on: CCRF-CEM leukemia
DU-145 prostate = tested on: DU-145 prostate
EKVX NSCLC = tested on: EKVX NSCLC
HCT-116 colon = tested on: HCT-116 colon
HCT-15 colon = tested on: HCT-15 colon
HL-60(TB) leukemia = tested on: HL-60(TB) leukemia
HOP-62 NSCLC = tested on: HOP-62 NSCLC
HOP-92 NSCLC = tested on: HOP-92 NSCLC
HS 578T breast = tested on: HS 578T breast
HT29 colon = tested on: HT29 colon
IGROV1 ovarian = tested on: IGROV1 ovarian
K-562 leukemia = tested on: K-562 leukemia
KM12 colon = tested on: KM12 colon
LOX IMVI melanoma = tested on: LOX IMVI melanoma
M14 melanoma = tested on: M14 melanoma
MCF7 breast = tested on: MCF7 breast
MDA-MB-231 breast = tested on: MDA-MB-231 breast
MDA-MB-435 = tested on: MDA-MB-435
MDA-N = tested on: MDA-N
MOLT-4 leukemia = tested on: MOLT-4 leukemia
OVCAR-5 ovarian = tested on: OVCAR-5 ovarian
OVCAR-8 ovarian = tested on: OVCAR-8 ovarian
PC-3 prostate = tested on: PC-3 prostate
RPMI-8226 leukemia = tested on: RPMI-8226 leukemia
RXF 393 renal = tested on: RXF 393 renal
SF-268 CNS = tested on: SF-268 CNS
SK-MEL-2 melanoma = tested on: SK-MEL-2 melanoma
SK-MEL-28 melanoma = tested on: SK-MEL-28 melanoma
SK-MEL-5 melanoma = tested on: SK-MEL-5 melanoma
SK-OV-3 ovarian = tested on: SK-OV-3 ovarian
SN12C renal = tested on: SN12C renal
SNB-19 CNS = tested on: SNB-19 CNS
SNB-75 CNS = tested on: SNB-75 CNS
SR leukemia = tested on: SR leukemia
SW-620 colon = tested on: SW-620 colon
TK-10 renal = tested on: TK-10 renal
U251 CNS = tested on: U251 CNS
UACC-257 melanoma = tested on: UACC-257 melanoma
UACC-62 melanoma = tested on: UACC-62 melanoma

Measured: TGI

CC1CC/C(=C\c2ccc(F)cc2)C2=C1C(c1ccc(F)cc1)n1c(s/c(=C/c3cccc(Br)c3)c1=O)=N2 (centres undefined)
> 100 µM: all assays above
